This experiment concerns the target T1, 5-HT1A receptor (Homo sapiens, UniProt P08908).
T1 construct: expressed in transfected cells; host or cells: HEK293 (membranes)
T1 sequence (P08908 1-422): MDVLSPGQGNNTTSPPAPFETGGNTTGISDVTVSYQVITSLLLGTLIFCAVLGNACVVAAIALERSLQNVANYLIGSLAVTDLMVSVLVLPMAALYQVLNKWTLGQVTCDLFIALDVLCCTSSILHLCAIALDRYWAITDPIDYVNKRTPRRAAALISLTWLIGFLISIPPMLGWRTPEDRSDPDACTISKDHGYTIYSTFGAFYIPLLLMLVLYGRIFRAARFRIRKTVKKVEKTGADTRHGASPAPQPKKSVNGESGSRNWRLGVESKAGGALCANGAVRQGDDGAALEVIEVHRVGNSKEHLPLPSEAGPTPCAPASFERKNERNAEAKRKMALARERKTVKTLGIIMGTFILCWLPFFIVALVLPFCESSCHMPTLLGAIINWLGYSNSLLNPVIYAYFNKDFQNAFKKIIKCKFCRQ
Put plainly: GTPγS binding functional potency assay (primary screen), 5-HT1A. The experiment is classed as biochemical. The following applies: assay a), membranes of HEK293 cells transfected with human 5-HT1A, read-out: fpKi at the 5-HT1A receptor. On the procedure:
a) Functional Potency—Primary Screen
The functional potency may be determined by the following GTPγS binding protocol. Cells used in the study are CHO Cells and Human Embryo Kidney (HEK293). Cells were transfected with DNA coding for human receptors as follows: HEK293—5-HT1A; CHO—5-HT1B; and CH—5-HT1D. Test compounds were initially dissolved in 100% dimethyl sulfoxide to a concentration of 10 mM. Serial dilution of the test compounds in 100% dimethyl sulphoxide was carried out using a Biomek FX in 384 well assay plates, so that the final top concentration of test compound is 3 μM in the assay. Add the test compound at 1.0% total assay volume (TAV) to a solid, white, 384 well assay plate (Costar). Add 50% TAV of precoupled (for 90 mins @ RT) membranes (5 ug/well), Wheatgerm Agglutinin Polystyrene Scintillation Proximity Assay beads (RPNQ0260 Amersham International) (0.25 mg/well) in 20 mM HEPES pH 7.4, 100 mM NaCl, 3 mM MgCl2 and 10 μM GDP. The third addition was a 20% TAV addition of either buffer, agonist format, or EC80 final assay concentration (FAC) of agonist, 5HT antagonist format, prepared in assay buffer. The assay was started by the addition of 29% TAV of GTPγS 0.38 nM FAC. After all additions assay plates were incubated at RT for 2-3 hours. Assay plates were counted on a Viewlux, 613/55 filter for 5 mins. Assay plates were read between 2-6 hours after the final addition.
(In general: GTPγS resists hydrolysis and so accumulates on activated G proteins.)

Here are results for 9 molecules from patent publication US20120022056A1, “FUSED TRICYCLIC DERIVATIVES FOR THE TREATMENT OF PSYCHOTIC DISORDERS” (priority 2005, published 2012).

Each structure is given as a SMILES string. Counter-ions that a name gives are not always drawn.

Take `Cc1ccc2c(N3CCN(CCc4cccc5c4ccc4nnnn45)[C@H](C)C3)cccc2n1` [Example 94, 6-{2-[(2R)-2-methyl-4-(2-methyl-5-quinolinyl)-1-piperazinyl]ethyl}tetrazolo[1,5-a]quinoline dihydrochloride]: the Ki is below 10 nM.

On to `CNC(=O)c1ncn2c1COc1c-2ccc(C)c1CCN1CCC(c2cccc3nc(C)ccc23)CC1` [Example 124, N,7-dimethyl-6-{2-[4-(2-methyl-5-quinolinyl)-1-piperidinyl]ethyl}-4H-imidazo[5,1-c][1,4]benzoxazine-3-carboxamide dihydrochloride], for which the Ki was below 10 nM.

In the case of `CNC(=O)c1ncn2c1ccc1c(CCN3CCC(c4cccc5nc(C)ccc45)CC3)cccc12` [Example 89, N-methyl-6-{2-[4-(2-methyl-5-quinolinyl)-1-piperidinyl]ethyl}imidazo[1,5-a]quinoline-3-carboxamide dihydrochloride], the Ki is below 10 nM. Take `Cc1ccc2c(N3CCN(CCc4cccc5c4ccc4c(-c6nc(C)no6)ncn45)[C@H](C)C3)cccc2n1` [Example 105, 6-{2-[(2R)-2-methyl-4-(2-methyl-5-quinolinyl)-1-piperazinyl]ethyl}-3-(3-methyl-1,2,4-oxadiazol-5-yl)imidazo[1,5-a]quinoline dihydrochloride]: the Ki is below 10 nM. Next, `CNC(=O)c1ncn2c1CCc1c(CCN3CCC(c4cccc5nc(C)ccc45)CC3)cccc1-2` [Example 83, N-methyl-6-{2-[4-(2-methyl-5-quinolinyl)-1-piperidinyl]ethyl}-4,5-dihydroimidazo[1,5-a]quinoline-3-carboxamide dihydrochloride]: below 10 nM; `CCOC(=O)c1nnn2c1ccc1c(CCN3CCN(c4cccc5nc(C)ccc45)CC3)cccc12` [Example 97, ethyl 6-{2-[4-(2-methyl-5-quinolinyl)-1-piperazinyl]ethyl}[1,2,3]triazolo[1,5-a]quinoline-3-carboxylate dihydrochloride]: below 10 nM.

`Cc1ccc2c(C3CCN(CCc4cccc5c4ccc4c(C(N)=O)ncn45)CC3)cccc2n1` [Example 91, 6-{2-[4-(2-methyl-5-quinolinyl)-1-piperidinyl]ethyl}imidazo[1,5-a]quinoline-3-carboxamide dihydrochloride]: the Ki is below 10 nM. Regarding `Cc1ccc2c(C3CCN(CCc4c(C)ccc5c4OCc4c(C(N)=O)ncn4-5)CC3)cccc2n1` [Example 125, 7-methyl-6-{2-[4-(2-methyl-5-quinolinyl)-1-piperidinyl]ethyl}-4H-imidazo[5,1-c][1,4]benzoxazine-3-carboxamide dihydrochloride], the Ki was below 10 nM. As for `Cc1ccc2c(C3CCN(CCc4cccc5c4CCc4c(C(N)=O)ncn4-5)CC3)cccc2n1` [Example 122, 6-{2-[4-(2-methyl-5-quinolinyl)-1-piperidinyl]ethyl}-4,5-dihydroimidazo[1,5-a]quinoline-3-carboxamide dihydrochloride], the Ki is below 10 nM.
